Test results as given in ChEMBL document CHEMBL1143363, “Discovery of trisubstituted cyclohexanes as potent CC chemokine receptor 2 (CCR2) antagonists” (Bioorg Med Chem Lett, 2009).

Columns and labels:
[1] = molecular target: T1, C-C chemokine receptor type 2 (Homo sapiens, UniProt P41597); experiment: Displacement of [125I]MCP1 from CCR2 in human PBMCs
Target sequence in this assay (P41597 whole entry): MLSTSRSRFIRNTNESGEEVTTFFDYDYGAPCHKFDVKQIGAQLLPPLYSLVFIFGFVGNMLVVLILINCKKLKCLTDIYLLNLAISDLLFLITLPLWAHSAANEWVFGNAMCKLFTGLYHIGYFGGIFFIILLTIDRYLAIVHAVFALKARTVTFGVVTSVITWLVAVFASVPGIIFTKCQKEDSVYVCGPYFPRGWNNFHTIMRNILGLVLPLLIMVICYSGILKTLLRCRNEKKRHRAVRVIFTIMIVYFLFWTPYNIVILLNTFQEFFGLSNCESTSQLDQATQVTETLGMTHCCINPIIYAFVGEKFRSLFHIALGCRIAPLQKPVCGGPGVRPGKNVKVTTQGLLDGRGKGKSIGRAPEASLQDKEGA

[2] = molecular target: T1, C-C chemokine receptor type 2; experiment: Antagonist activity at CCR2 in human monocytes assessed as inhibition of MCP1-induced calcium influx by FLIPR; assay type: functional, cell-based
Target sequence in this assay (P41597 whole entry): as above

[3] = molecular target: T1, C-C chemokine receptor type 2; experiment: Displacement of [125I]MCP1 from CCR2 in human PBMCs at 1 uM
Target sequence in this assay (P41597 whole entry, looked up): as the sequence (P41597 whole entry) above

[4] = Antagonist activity at CCR2 in human PBMCs assessed as inhibition of MCP1-induced chemotaxis

Structure (SMILES)	IC50 [1] [nM]	IC50 [2] [nM]	Activity [3] [%]	IC50 [4] [nM]
CSc1ccc(C(=O)NC2CCC(N)CC2NC(=O)CNC(=O)c2cccc(C(F)(F)F)c2)cc1 (racemic)	–	–	13	–
CSc1ccc(C(=O)NC2CCC(NC(=O)OCc3ccccc3)CC2NC(=O)CNC(=O)c2cccc(C(F)(F)F)c2)cc1 (racemic)	1610	–	0	–
CSc1ccc(C(=O)NC2CC(NC(=O)OCc3ccccc3)CCC2NC(=O)CNC(=O)c2cccc(C(F)(F)F)c2)cc1 (racemic; form 2)	2.4	2	–	–
CSc1ccc(C(=O)NC2CCC(NC(=O)OCc3ccccc3)CC2NC(=O)CNC(=O)c2cc(C(F)(F)F)ccc2NC(=O)OC(C)(C)C)cc1 (racemic)	600	–	–	–
CC(C)c1ccc(CNC2CC(N(C)C)CCC2NC(=O)CNC(=O)c2cccc(C(F)(F)F)c2)cc1 (racemic)	16.5	19	–	–
CSc1ccc(C(=O)NC2CCC(NC(=O)OCc3ccccc3)CC2NC(=O)CNC(=O)c2cc(C(F)(F)F)ccc2N)cc1 (racemic)	–	–	3.1	–
CSc1ccc(C(=O)NC2CC(N)CCC2NC(=O)CNC(=O)c2cc(C(F)(F)F)ccc2N)cc1 (racemic)	4.8	6	–	–
CN(C)C1CCC(NC(=O)CNC(=O)c2cccc(C(F)(F)F)c2)C(NCc2ccc(Cl)c(Cl)c2)C1 (racemic)	61.5	–	–	–
CSc1ccc(C(=O)NC2CCNCC2NC(=O)CNC(=O)c2cc(C(F)(F)F)ccc2N)cc1 (racemic)	–	–	–	109
CN(C)C1CCC(NC(=O)CNC(=O)c2cccc(C(F)(F)F)c2)C(NCc2ccc3[nH]ccc3c2)C1 (racemic)	3.1	8	–	–
COc1ccc(CNC2CC(N(C)C)CCC2NC(=O)CNC(=O)c2cccc(C(F)(F)F)c2)cc1 (racemic)	12.5	8	–	–
CSc1ccc(C(=O)NC2CCC(NC(C)C)CC2NC(=O)CNC(=O)c2cc(C(F)(F)F)ccc2N)cc1 (racemic)	3.8	2	–	–
Cc1ccc(CNC2CC(N(C)C)CCC2NC(=O)CNC(=O)c2cccc(C(F)(F)F)c2)cc1 (racemic)	9.9	5.5	–	–
CSc1ccc(C(=O)NC2CC(NC(C)C)CCC2NC(=O)CNC(=O)c2cccc(C(F)(F)F)c2)cc1 (racemic)	–	–	31.4	–

Next, values leading:

IC50 [1] [nM]	IC50 [2] [nM]	Activity [3] [%]	IC50 [4] [nM]	Structure (SMILES)
2.4	6	–	–	CSc1ccc(CNC2CC(N(C)C)CCC2NC(=O)CNC(=O)c2cccc(C(F)(F)F)c2)cc1 (racemic)
112	–	–	–	CNC(=O)NC1CCC(NC(=O)c2ccc(SC)cc2)C(NC(=O)CNC(=O)c2cc(C(F)(F)F)ccc2N)C1 (racemic)
16	7	–	–	CN(C)C1CCC(NC(=O)CNC(=O)c2cccc(C(F)(F)F)c2)C(NCc2ccc(Cl)cc2)C1 (racemic)
32.5	27	–	–	CN(C)C1CCC(NC(=O)CNC(=O)c2cccc(C(F)(F)F)c2)C(NCc2cccc(C(F)(F)F)c2)C1 (racemic)
7.7	–	–	–	CC(=O)Nc1ccc(CNC2CC(N(C)C)CCC2NC(=O)CNC(=O)c2cccc(C(F)(F)F)c2)cc1 (racemic)
–	–	14	–	CSc1ccc(C(=O)NC2CC(NC(=O)OCc3ccccc3)CCC2NC(=O)CNC(=O)c2cccc(C(F)(F)F)c2)cc1 (racemic; form 1)
167	–	28.1	–	CSc1ccc(C(=O)NC2CCC(N)CC2NC(=O)CNC(=O)c2cc(C(F)(F)F)ccc2N)cc1 (racemic)
228	–	–	–	CSc1ccc(C(=O)NC2CC(N)CCC2NC(=O)CNC(=O)c2cccc(C(F)(F)F)c2)cc1 (racemic)
155	–	–	–	CSc1ccc(C(=O)NC2CCCCC2NC(=O)CNC(=O)c2cc(C(F)(F)F)ccc2N)cc1 (racemic)
136	–	–	–	CSc1ccc(C(=O)NC2CCC(NC(C)C)CC2NC(=O)CNC(=O)c2cccc(C(F)(F)F)c2)cc1 (racemic)
